Laboratory results reported in patent US20250270170A1, “2,3-DIMETHOXY-5-METHYL-1,4-BENZOQUINONE ALKYL ALCOHOL DERIVATIVE AND USE THEREOF” (BEIJING ANJIANXI BIO-MEDICAL TECHNOLOGY CO., LTD., priority 2021, published 2025).

Key:
A549 cells = assay: Flow cytometry for cell cycle detection, A549; type: cell-based, human
Description: (1) Cells were inoculated in a 6-well plate. When about 50% of the cells were adherent and fused, the compound of formula (I) at a concentration of 0 μM, 10 μM, 30 μM, and 90 μM were added, respectively. The plate was placed in an incubator at 37° C. with 5% CO2 to continue culturing, and three time points were set, which were 24 h, 48 h and 72 h, respectively.
(2) After reaching the designated time point, the cell culture plate was taken out from the incubator, and placed in a biological safety cabinet. A 4 ml centrifuge tube was taken and marked. The supernatant in each well was pipetted out and added to the corresponding 4 ml centrifuge tube. The cells were gently washed with PBS, and the PBS was added to the corresponding centrifuge tube. An appropriate amount of trypsin was added to each well to digest the cells. When the cells were digested to a moderate degree, the old culture medium from the centrifuge tube was added to the corresponding well. The cells were gently pipetted with apipette to form a single-cell suspension, which was pipetted back into the original centrifuge tube. The tube was immediately centrifuged at 1500 rpm for 5 minutes. Then, the supernatant was discarded and the precipitate was retained.
(3) 2 ml of pre-chilled PBS was added to the centrifuge tube, and centrifuged again at 1500 rpm for 5 minutes. The supernatant was discarded, and the cell debris was removed.
(4) 1 ml of 75% ethanol was added while pipetting the cells, to make the cells appear as single as possible. Then, the cells were fixed at 4° C. overnight or stored at −20° C. for long-term storage (can be stored for 1 week).
(5) The fixed cells were taken out, and centrifuged at 1000 rpm for 5 minutes. The ethanol was discarded, and pre-chilled PBS was added to wash the cells. Then, the cells were centrifuged at 1000 rpm for 5 min to remove the residual ethanol on the cells.
(6) A cell cycle detection kit from Wuhan Promoter Biology Co., Ltd. was used. 100 μl of RNaseA was added, and incubated in a 37° C. water bath for 30 minutes.
(7) 400 μl of PI was added and mixed well, and incubated at 4° C. in dark for 30 minutes.
(8) The cell cycle was detected by upflow cytometry.

[1] = Example 5: acute toxicity, single gavage administration; type: in vivo, ICR mice; settings: both sexes, mouse, in vivo, po, ICR mice, single gavage administration
Description: Preparation of the administration formulation of the test sample: A mixture of the compound of formula (I) and ethanol/ethyl acetate (v/v, 1/3) with a ratio of 1:1.5 was dissolved by sonication at room temperature. 2.25 equivalents of compound of formula (I) of PVP were added, and the mixture was stirred vigorously at room temperature for 20 minutes. Then, 2 equivalents of the compound of formula (I) of lactose were added, and the mixture was stirred vigorously at room temperature for 20 minutes. The mixture was dried in an oven at 50° C. and then pulverized to give a yellow powder formulation of the compound of formula (I). Then, an appropriate amount of the formulation of compound of formula (I) was weighed, and an appropriate volume of 0.5% CMC-Na aqueous solution was added. The mixture was vortexed and sonicated to mix evenly (if necessary, shear emulsification may be performed), to give an administration formulation of the test sample. The administration formulation was prepared twice a week, and 3 or 4 days of dosage was prepared each time, which was divided and stored in a 0-8° C. refrigerator for later use. When the test sample was used, a final volume mark was marked on a container, and a required amount of the test sample was weighed (weighing weight of the test sample=theoretical dosage*conversion factor) into a clean and dry container. An appropriate amount of solvent was firstly added, and the mixture was stirred and mixed thoroughly, and sonicated if necessary. The solvent was further added to the final volume mark to dilute and mix evenly, to give a visually uniform formulation. […] The administration formulation of the test sample was stable within 24 hours when being stored airtightly at room temperature in dark, and was stable within 8 days when being stored airtightly at 2° C. to 8° C. in dark.
• Species: ICR mice • Grade: SPF grade
Number and gender of the animals being used: 40, half male and half female;
Body weight: The body weight of the female group was from 25.9 to 29.7 g; the body weight of the male group was from 27.7 to 30.8 g;
Age at the time of administration: 38 to 44 days (female), 31 to 44 days (male)
Route of Administration: Gavage Administration
Administration frequency: once/day
Administration period: 1 day
The dosage was calculated based on the body weight of the animals weighed on D1 after fasting (with water access) overnight. The feed was given approximately 2 hours after drug administration.
The administration formulation in each group was stirred at room temperature for at least 10 minutes, and suspended uniformly with visual inspection before the administration. The administration formulation was required to be continually stirred during the administration.
Observation indicators: observation of general physical signs, body weight, food intake, animal anatomy and histopathological examination were included.

ICR mice = assay: Example 6: repeated gavage administration toxicity for 2 weeks; type: in vivo
Text: The compound of formula (I) was gavagely administered continuously to ICR mice for 14 days, to evaluate the nature, degree, and time-effect relationship of the toxic reactions that the compound of formula (I) may cause, and to provide reference information for the subsequent research.
Preparation of the administration formulation of the test sample in each dosage group: The preparation of the test sample was the same as that in Example 5. When the test sample was used, a final volume mark was marked on a container, and a required amount of the test sample was weighed (weighing weight of the test sample=theoretical dosage/conversion factor) into a container. An appropriate amount of solvent was firstly added, and the mixture was stirred and mixed thoroughly, and sonicated if necessary. The solvent was further added to the final volume mark to dilute and mix evenly, to give a visually uniform formulation, which was verified by the methodology. […] The administration formulation of the test sample with a concentration range of 0.01 mg/mL to 60 mg/mL was stable within 8 days when being stored airtightly at 2° C. to 8
Route of Administration: Oral Gavage
Administered once a day; while maintaining the same administration period every day.
Administered continuously for 14 days
The dosage was calculated based on the latest animal body weight.
The administration formulation of the test sample was stirred at room temperature for at least 10 minutes, and suspended uniformly with visual inspection before the administration. The administration formulation of the test sample was required to be continually stirred during the administration.
Observation indicators: observation of general physical signs, detailed clinical observation, body weight, and food intake were included.

[2] = 100 mg/kg dosage group, surviving animals

**Q.** Which “proportion of S phase of cells” value (A549 cells; 10 μM, 24 h) does the source give for `COC1=C(OC)C(=O)C(CCCCCCCCCCOC(=O)Cc2c(C)n(C(=O)c3ccc(Cl)cc3)c3ccc(OC)cc23)=C(C)C1=O` [compound of formula (I)] here?
**A.** 22.94%

**Q.** And the “proportion of S phase of cells” value (A549 cells; 10 μM, 48 h)?
**A.** 24.73%

**Q.** And the “proportion of S phase of cells” value (A549 cells; 10 μM, 72 h)?
**A.** 19.77%

**Q.** What about the “proportion of S phase of cells” value (A549 cells; 30 μM, 24 h) of the same molecule?
**A.** 12.52%

**Q.** What about the “proportion of S phase of cells” value (A549 cells; 30 μM, 48 h) of the same molecule?
**A.** 15.96%

**Q.** What about the “proportion of S phase of cells” value (A549 cells; 30 μM, 72 h) of the same molecule?
**A.** 10.63%

**Q.** And the “proportion of S phase of cells” value (A549 cells; 90 μM, 24 h)?
**A.** 3.92%

**Q.** And the “proportion of S phase of cells” value (A549 cells; 90 μM, 48 h)?
**A.** 4.37%

**Q.** And the “proportion of S phase of cells” value (A549 cells; 90 μM, 72 h)?
**A.** 5.42%

**Q.** And the LD50 at 1 day [1]?
**A.** > 3000 mg/kg

**Q.** And the MTD at 1 day ([1]; read-out: maximum tolerated dose (MTD))?
**A.** 300 mg/kg/day

**Q.** What about the abnormal reactions (ICR mice; 25 mg/kg dosage group) of the same molecule?
**A.** No abnormal reactions

**Q.** What about the body weight (ICR mice; 25 mg/kg dosage group) of the same molecule?
**A.** increased normally

**Q.** And the animals found dead (ICR mice; 25 mg/kg dosage group, 20 animals per group, gavage once a day, 14 days)?
**A.** No animal was found dead

**Q.** And the abnormal reactions (ICR mice; 50 mg/kg dosage group)?
**A.** No abnormal reactions

**Q.** And the body weight (ICR mice; 50 mg/kg dosage group)?
**A.** increased normally

**Q.** And the animals found dead (ICR mice; 50 mg/kg dosage group, 20 animals per group, gavage once a day, 14 days)?
**A.** No animal was found dead

**Q.** And the abnormal reactions (ICR mice; [2])?
**A.** No abnormal reactions

**Q.** And the body weight (ICR mice; [2])?
**A.** increased normally

**Q.** And the animals found dead (ICR mice; 100 mg/kg dosage group, 20 animals per group, gavage once a day, 14 days)?
**A.** 3

**Q.** And the animals found dead (ICR mice; 300 mg/kg dosage group, 20 animals per group, gavage once a day, 14 days)?
**A.** 10

**Q.** What about the animals found dead (ICR mice; 1000 mg/kg dosage group, 20 animals per group, gavage once a day) of the same molecule?
**A.** 13

**Q.** What about the animals found dead (ICR mice; 1000 mg/kg/d dosage group, from D3 to D6, administration then stopped) of the same molecule?
**A.** 4
